# According to PubChem BioAssay (NCI):
#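 Following 48 hours of exposure in 96-well plates, responses at five concentrations were used to interpolate endpoints linearly. At the GI50, growth is halved. At the TGI there is no net growth.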
# Legend:
# Test in all cases: DTP human tumour cell line panel, 48 h
# NCI-H226 lung = tested on: NCI-H226 lung
# KM12 colon = tested on: KM12 colon
# MDA-MB-435 = tested on: MDA-MB-435
# SK-MEL-5 melanoma = tested on: SK-MEL-5 melanoma
# SF-539 CNS = tested on: SF-539 CNS
# OVCAR-4 ovarian = tested on: OVCAR-4 ovarian
# T-47D breast = tested on: T-47D breast
# SF-295 CNS = tested on: SF-295 CNS
# HT29 colon = tested on: HT29 colon
# K-562 leukemia = tested on: K-562 leukemia
Compound,TGI (NCI-H226 lung),TGI (KM12 colon),TGI (MDA-MB-435),TGI (SK-MEL-5 melanoma),TGI (SF-539 CNS),TGI (OVCAR-4 ovarian),TGI (T-47D breast),TGI (SF-295 CNS),TGI (HT29 colon),TGI (K-562 leukemia),GI50 (SF-539 CNS)
COc1cccc(NC(=O)CC(=O)n2nc(-c3ccccc3)c(N=Nc3ccc(Cl)cc3)c2-c2ccccc2)c1,73.8 µM,> 81.9 µM,> 100 µM,53.8 µM,> 74.8 µM,> 100 µM,> 100 µM,> 88.8 µM,56.7 µM,> 78 µM,–
CCOC(=O)c1c(N2CCCC2)[nH]c(=O)c(C(c2ccc(N(C)C)cc2)c2c(O)c(C(=O)OCC)c(N3CCCC3)[nH]c2=O)c1O,> 100 µM,> 100 µM,> 100 µM,> 100 µM,> 100 µM,> 100 µM,> 100 µM,> 100 µM,> 100 µM,> 100 µM,–
CC(C)OP(=O)(OC(C)C)C(C(C)C)N(C)C(N)=NC#N (stereo unspecified),> 100 µM,> 100 µM,> 100 µM,> 100 µM,> 100 µM,> 100 µM,> 100 µM,> 100 µM,> 100 µM,> 100 µM,–
c1ccc2c(Nc3ncco3)cccc2c1,> 10 µM,> 10 µM,> 10 µM,> 10 µM,> 10 µM,> 10 µM,> 10 µM,> 10 µM,> 10 µM,> 10 µM,–
COc1cccc2c1OC1c3ccccc3OCC1(O)C2 (stereo unspecified),> 100 µM,> 100 µM,> 100 µM,> 100 µM,> 100 µM,> 100 µM,> 100 µM,> 100 µM,> 100 µM,> 100 µM,–
O=c1[nH]cc(N=Cc2cc(Cl)ccc2O)c(=O)[nH]1,98 µM,> 100 µM,> 100 µM,> 100 µM,7.43 µM,12.3 µM,60.7 µM,42.1 µM,> 100 µM,> 100 µM,–
COc1ccc(/C=c2\[nH]c3nc(=O)c(N4CCCCC4)c(N)n3c2=O)cc1,> 100 µM,> 100 µM,> 100 µM,> 100 µM,> 100 µM,> 100 µM,> 100 µM,> 100 µM,> 100 µM,> 100 µM,–
O=c1cc(-c2ccccc2)oc2c1ccc1[nH]c3ccccc3c(=O)c12,> 100 µM,> 100 µM,> 100 µM,> 100 µM,> 100 µM,> 100 µM,> 100 µM,> 100 µM,> 100 µM,> 100 µM,–
CC/C=C/c1cc2c(cc1O)CCC1C2CC[C@@]2(C)C1CC[C@@H]2O (stereo partly specified),10.6 µM,15 µM,1.12 µM,11.3 µM,2.59 µM,35.3 µM,15 µM,1.48 µM,21.1 µM,7.66 µM,645 nM
O=C1N2CCC[C@H]2CS1(=O)=O,72.2 µM,30.8 µM,36.7 µM,33.3 µM,> 100 µM,28.6 µM,32.9 µM,> 100 µM,75.1 µM,32.1 µM,–
Cc1cc(C)nc(NS(=O)(=O)c2ccc(NNc3c4ccccc4nc4c(C(=O)Nc5ccc(S(=O)(=O)Nc6cc(C)on6)cc5)cccc34)cc2)n1,63.8 µM,> 100 µM,> 100 µM,> 100 µM,> 100 µM,> 100 µM,> 100 µM,> 100 µM,49.1 µM,87.2 µM,–
c1cc2cc3c4c5c(cc6ccc7cc8cc9c%10c8c8c7c6c5c8c5c%10c(c1C9N1CCOCCOCCOCCOCCOCC1)c2c45)C3 (stereo unspecified),> 100 µM,> 100 µM,> 100 µM,> 100 µM,> 100 µM,> 100 µM,> 100 µM,> 100 µM,> 100 µM,> 100 µM,–
C=C(Br)C[N+]12CN3CN(CN(C3)C1)C2,> 100 µM,> 100 µM,> 100 µM,> 100 µM,> 100 µM,> 100 µM,> 100 µM,> 100 µM,> 100 µM,> 100 µM,–
Clc1ccc(-c2nn3c(COc4cccc(OCc5nnc6sc(-c7ccc(Cl)cc7)nn56)c4)nnc3s2)cc1,> 100 µM,> 100 µM,41.7 µM,50.7 µM,49.5 µM,27.6 µM,57 µM,> 100 µM,60.2 µM,> 100 µM,–
CCOC(=O)CCc1cn2cc(Br)nc(OC)c2n1,> 100 µM,> 100 µM,26 µM,> 100 µM,> 100 µM,> 100 µM,> 100 µM,> 100 µM,> 100 µM,> 100 µM,–
CC(C)(C)OC(=O)C(C#N)C(=O)c1ccc(C(=O)O)[nH]1 (stereo unspecified),> 100 µM,> 100 µM,> 100 µM,> 100 µM,> 100 µM,52.9 µM,> 100 µM,> 100 µM,> 100 µM,> 100 µM,–
C=C(CN(CC)CC)C1(c2ccccc2)CC2(CCCC2)C(=O)O1 (stereo unspecified),> 100 µM,> 100 µM,> 100 µM,> 100 µM,> 100 µM,> 100 µM,> 100 µM,> 100 µM,77.9 µM,> 100 µM,–
CCOC(=O)c1cc2c3c(c(C(C)=O)c(OC)c2[nH]1)N(C(=O)CC)CC3,34.2 µM,26.3 µM,50.3 µM,24.5 µM,41.7 µM,40.9 µM,45.4 µM,39.1 µM,30.5 µM,50.5 µM,–
